Experimental data taken from BindingDB's records for doi:10.1016/j.ejmech.2020.112337 (Paris-Saclay University, 2020).

Tests used:
[1] = Inhibition of RIPK1 in human FADD-deficient Jurkat I 2.1 cells assessed as reduction in TNFalpha-induced necroptosis measured after 24 hrs by MTS assay
[2] = Inhibition of RIPK1 in human FADD-deficient Jurkat I 2.1 cells assessed as protection against TNFalpha-induced necroptosis measured after 24 hrs by MTS assay

| SMILES | EC50 [1] [µM] | EC50 [2] [µM] |
| --- | --- | --- |
| CCCCNc1nc2ccc([N+](=O)[O-])cc2[nH]1 | 1.7 | 1.7 |
| CCCCNc1nc2cccc(C(=O)OC)c2[nH]1 |  | 18.1 |
| Clc1ccc2nc(NC3CCCCC3)[nH]c2c1 |  | 4.4 |
| CCCCNc1nc2ccc([N+](=O)[O-])cc2s1 |  | 6.9 |
| CCCCNc1nc2cc([N+](=O)[O-])ccc2s1 |  | 4.7 |
| O=[N+]([O-])c1ccc2nc(Nc3ccccc3)[nH]c2c1 |  | 2.5 |
| O=[N+]([O-])c1ccc2nc(NC3CCCCC3)[nH]c2c1 |  | 1.04 |
| CC(C)Nc1nc2ccc([N+](=O)[O-])cc2[nH]1 |  | > 25 |
| COC(=O)c1cccc2nc(NC3CCCCC3)[nH]c12 |  | 9 |
| CCCNc1nc2ccc([N+](=O)[O-])cc2[nH]1 |  | 14.4 |
